In patent US5527785A, “Selectin receptor modulating compositions” (The Regents of the University of California, priority 1993, dated 1996):

Assays:
L-selectin-Ig [1] = test: Competition ELISA, L-selectin-Ig binding to BSA-sLe^x; details: for inhibition of L-selectin-Ig binding to BSA-sLe^x (in words): competitive ELISA, FIG. 8
P-selectin [2] = test: HL60 cell adhesion to COS cells transfected with P-selectin cDNA; assay type: cell-based; details: at the concentrations tested in these adhesion assays (HL60 and PMN to selectin-transfected COS)
Experimental: COS cells were grown on coverslips in Dulbecco's minimal essential media with 10% fetal calf serum. After 72 hours, polysaccharides were added to the COS cell cultures to achieve final concentrations of 0, 0.1, 1.0, 10.0, 100.0 or 1000.0 μg/ml. Polysaccharides included crude heparin, dermatan sulfate, heparin tetrasaccharide, and heparin hexasaccharide. HL60 cells, a leukocytic cell line, were added to the COS cell cultures 30 minutes after the polysaccharides were added and incubated for 30 minutes. The coverslips were then washed with media to remove unbound cells and COS cells with three or more HL60 cells bound (rosettes) were counted using phase contrast microscopy.
Briefly, subconfluent monolayers were incubated at 37° C. for 2.5 hours with Dulbecco's modified Eagle's medium (DMEM) with 10% NuSerum (Collaborative Research, Bedford, Mass.) containing 10 μg cDNA, 400 μg/mL DEAE-dextran (Sigma), and 100 μM chloroquine diphosphate (Sigma). […] HL60 cell adhesion was quantitated as number of HL60 rosettes (2 or more cells bound) per 100 transfected COS cells. Number of transfected COS was determined using mAbs specific for E-, P-, and L-selectin (see below) followed by secondary reaction with a fluorescein-conjugated anti-immunoglobulin antibody (Cappel, Durham, N.C.). […]

P-selectin-Ig [3] = test: Competition ELISA, P-selectin-Ig binding to BSA-sLe^x; details: Table 1, P-selectin; approximate IC50 values
Experimental: (§1) Briefly, microtiter plates were coated with neoglycoprotein BSA-sLe^x, BSA-sLe^a, (Chembiomed, Alberta, CAN) or unconjugated BSA (0.11 μg/well) in 50 mM carbonate bicarbonate buffer, pH 9.5. Plates were blocked with 20 mg/ml BSA in ELISA buffer (150 mM NaCl, 20 mM HEPES, 2 mM CaCl2, 0.25 mM thimerosal, pH 7.4). E- and P-selectin-Ig fusion proteins (20 nM) were coincubated in the coated, blocked microtiter wells with serially diluted heparin fragments (typically 0-1000 μg/ml) in ELISA buffer containing 10 mg/ml BSA for three hours at room temperature. […] Color development was stopped in the linear range (typically after 4-16 minutes) using 5 μl 4 NH2 SO4, and endpoint optical density measured at 490 nm.

L-selectin-Ig [4] = test: LS180 colon cancer cell adhesion to immobilized L-selectin-Ig; assay type: cell-based; details: FIG. 5
Experimental: (§2) The colon carcinoma cell line, LS180, is a useful model for studying selectin-dependent adhesion since it binds to all three selectins. E-, P-, and L-selectin-Ig were immobilized on microwell (Terasaki) plates coated with protein A. Five μl of buffer containing crude heparin, di-, tetra- or hexasaccharide heparin fragments or antibody (as described above) was incubated for 20 minutes at 4° C. Five μl containing 5000 LS180 cells was added for 30 minutes at 4° C. to allow adhesion to occur. The wells were then washed, fixed with glutaraldehyde, and the bound cells counted by microscopic observation.

P-selectin-Ig [5] = test: LS180 colon cancer cell adhesion to immobilized P-selectin-Ig; assay type: cell-based; details: FIG. 5
Experimental: as §2

E-selectin-Ig [6] = test: LS180 colon cancer cell adhesion to immobilized E-selectin-Ig; assay type: cell-based; details: FIG. 5
Experimental: as §2

E-selectin-Ig [7] = test: Competition ELISA, E-selectin-Ig binding to BSA-sLe^x
Experimental: as §1

P-selectin [8] = details: Larsen, et al.; cited from earlier work
L-selectin-Ig [9] = details: 5 mM; cited from earlier work
L-selectin-Ig [10] = details: 11 mM; cited from earlier work
L-selectin-Ig [11] = details: Table 1, L-selectin; footnote: Foxall, et al., supra; cited from earlier work

O=C(O)C1=C[C@H](O)[C@@H](OS(=O)(=O)O)[C@H](O[C@H]2[C@H](O)[C@@H](NS(=O)(=O)O)C(O)O[C@@H]2COS(=O)(=O)O)O1 (some centres unmarked) [Di, UA2Sα1-4GIcNS6S]
IC50, inhibition of L-selectin-Ig binding to BSA-sLe^x (L-selectin-Ig [1]; Table 1, L-selectin, approximate IC50 values): > 1000 µg/mL
inhibition of L-selectin-Ig binding to BSA-sLe^x (in words) (L-selectin-Ig [1]; listed as tris-sulfated heparin disaccharide): some inhibition
inhibition of L-selectin-Ig binding to BSA-sLe^x (in words) (L-selectin-Ig [1]; listed as trisulfated disaccharide fragment of heparin): somewhat effective
blocking activity in the COS cell adhesion assays (in words) (P-selectin [2]): little blocking activity
IC50, inhibition of P-selectin-Ig binding to BSA-sLe^x (P-selectin-Ig [3]): > 1000 µg/mL
adhesion of LS180 cells to plates coated with L-selectin-Ig (in words) (L-selectin-Ig [4]): no effect
adhesion of LS180 cells to plates coated with P-selectin-Ig (in words) (P-selectin-Ig [5]): no effect
adhesion of LS180 cells to plates coated with E-selectin-Ig (in words) (E-selectin-Ig [6]): no effect

O=C(O)C1=C[C@H](O)[C@@H](OS(=O)(=O)O)[C@H](O[C@H]2[C@H](O)[C@@H](NS(=O)(=O)O)[C@@H](O[C@H]3[C@H](O)[C@@H](OS(=O)(=O)O)[C@H](O[C@H]4[C@H](O)[C@@H](NS(=O)(=O)O)C(O)O[C@@H]4COS(=O)(=O)O)O[C@H]3C(=O)O)O[C@@H]2COS(=O)(=O)O)O1 (some centres unmarked) [F4, ΔUA2Sα1-4DGIcNS6Sα1-4LIdoA2Sα1-4DGIcNS6S]
IC50, inhibition of L-selectin-Ig (L-selectin-Ig [1]; competition ELISA, FIG. 12): 61 µg/mL
IC50 (L-selectin-Ig [1]; competition ELISA, FIG. 12, read-out: IC50, inhibition of L-selectin-Ig): 46 µM
activity relative to the size fractionated tetrasaccharide mixture (L-selectin-Ig [1]; competition ELISA, L-selectin-Ig): 2-4 fold
activity against L-selectin relative to sLe^x in non-cellular assays (L-selectin-Ig [1]; non-cellular assays, F4 vs sLe^x): over 100 fold
activity against E-selectin-Ig (in words) (E-selectin-Ig [7]; concentrations up to 1 mM): no activity

CC(=O)N[C@H]1[C@H](O[C@H]2[C@@H](O)[C@@H](CO)O[C@@H](O[C@H]3[C@H](O)[C@@H](O)C(O)O[C@@H]3CO)[C@@H]2O)O[C@H](CO)[C@@H](O[C@@H]2O[C@H](CO)[C@H](O)[C@H](O)[C@H]2O)[C@@H]1O[C@@H]1O[C@@H](C)[C@@H](O)[C@@H](O)[C@@H]1O (some centres unmarked) [LNF-III]
P-selectin-dependent rosetting of activated platelets to leukocytes (in words) (P-selectin [8]): blocked

CC(=O)NC1C(O)CC(OC2C(O)C(CO)OC(OC3C(CO)OC(O)C(NC(C)=O)C3OC3OC(C)C(O)C(O)C3O)C2O)(C(=O)O)OC1C(O)C(O)CO (centres unmarked) [sLex, Neu5Acα2-3Galβ1-4(Fucα1-3)GIcNAc, reference compound]
activity against L-selectin-Ig binding (in words) (L-selectin-Ig [1]; concentrations of up to 1 mM): no measurable activity
IC50, inhibition of P-selectin-Ig binding to BSA-sLe^x (P-selectin-Ig [3]): > 1000 µg/mL
block of L-selectin-Ig binding to immobilized sLe^x glycolipid (L-selectin-Ig [9]): approximately 50%
block of L-selectin-Ig binding to glycam-1 (L-selectin-Ig [10]): approximately 60%
IC50, inhibition of L-selectin-Ig binding (L-selectin-Ig [11]): 4100 µg/mL
IC50 (E-selectin-Ig [7]; read-out: IC50, E-selectin-Ig binding to immobilized BSA-sLe^x): 510 ± 60 µM
